Assay results from patent US10167262B2, “Herbicidal substituted 3-arylpyrazoles” (FMC CORPORATION, priority 2014, dated 2019).

Tests used:
Assay in all cases: Test E pre-/postemergence greenhouse test, plant response rating 0-100
Assay type in all cases: in vivo
[1] = tested on: fall panicum (Panicum dichotomiflorum); details: Postemergence, scale 0 to 100
Description: (§1) Seeds of plant species selected from corn (Zea mays), soybean (Glycine max), velvetleaf (Abutilon theophrasti), lambsquarters (Chenopodium album), wild poinsettia (Euphorbia heterophylla), palmer pigweed (Amaranthus palmeri), waterhemp (common waterhemp, Amaranthus rudis), surinam grass (Brachiaria decumbens), large (Lg) crabgrass (Digitaria sanguinalis), Brazilian crabgrass (Digitaria horizontalis), fall panicum (Panicum dichotomiflorum), giant foxtail (Setaria faberii), green foxtail (Setaria viridis), goosegrass (Eleusine indica), johnsongrass (Sorghum halepense), ragweed (common ragweed, Ambrosia elatior), barnyardgrass (Echinochloa crus-galli), sandbur (southern sandbur, Cenchrus echinatus), arrowleaf sida (Sida rhombifolia), Italian ryegrass (Lolium multiflorum), dayflower (Virginia (VA) dayflower, Commelina virginica), field bindweed (Convolvulus arvensis), morningglory (Ipomoea coccinea), nightshade (eastern black nightshade, Solanum ptycanthum), kochia (Kochia scoparia), yellow nutsedge (Cyperus esculentus), smartweed (ladysthumb smartweed, Polygonum persicaria), cocklebur (common cocklebur, Xanthium strumarium), and hairy beggarticks (Bidens pilosa), were planted into a silt loam soil and treated preemergence with test chemicals formulated in a non-phytotoxic solvent mixture which included a surfactant.
(§2) At the same time, plants from these crop and weed species and also waterhemp_RES1, (ALS & Triazine resistant common waterhemp, Amaranthus rudis), and waterhemp_RES2, (ALS & HPPD resistant common waterhemp, Amaranthus rudis) were planted in pots containing Redi-Earth® planting medium (Scotts Company, 14111 Scottslawn Road, Marysville, Ohio 43041) comprising spaghnum peat moss, vermiculite, wetting agent and starter nutrients were treated with postemergence applications of test chemicals formulated in the same manner. Plants ranged in height from 2 to 18 cm for postemergence treatments (1- to 4-leaf stage).
(§3) Treated plants and controls were maintained in a greenhouse for 14 to 21 days, after which time all species were compared to controls and visually evaluated. Plant response ratings, summarized in Table E, are based on a scale of 0 to 100 where 0 is no effect and 100 is complete control. A dash (-) response means no test result.

[2] = tested on: arrowleaf sida (Sida rhombifolia); details: Postemergence
Description: as §1, §2, §3

soybean (Glycine max) = details: Postemergence, scale 0 to 100
Description: as §1, §2, §3

[3] = tested on: sandbur (southern sandbur, Cenchrus echinatus); details: Postemergence, scale 0 to 100
Description: as §1, §2, §3

[4] = tested on: field bindweed (Convolvulus arvensis); details: Postemergence, scale 0 to 100
Description: as §1, §2, §3

[5] = tested on: palmer pigweed (Amaranthus palmeri); details: Postemergence, scale 0 to 100
Description: as §1, §2, §3

[6] = tested on: waterhemp (common waterhemp, Amaranthus rudis); details: Postemergence, scale 0 to 100
Description: as §1, §2, §3

corn (Zea mays) = details: Postemergence, scale 0 to 100
Description: as §1, §2, §3

[7] = tested on: dayflower (Virginia (VA) dayflower, Commelina virginica); details: Postemergence, scale 0 to 100
Description: as §1, §2, §3

[8] = tested on: wild poinsettia (Euphorbia heterophylla); details: for Plant response rating, Poinsettia, Wild: Postemergence, scale 0 to 100
Description: as §1, §2, §3

[9] = tested on: Brazilian crabgrass (Digitaria horizontalis); details: Postemergence, scale 0 to 100
Description: as §1, §2, §3

[10] = Euphorbia heterophylla, post-emergence, read-out: Plant response rating, Poinsettia, Wild

## CCCn1cc(C(=O)c2ccccc2)c(-c2cc(Cl)cc(Cl)c2)n1 [Compound 61, [3-(3,5-dichlorophenyl)-1-propyl-1H-pyrazol-4-yl]phenylmethanone]
[1]; Panicum dichotomiflorum, post-emergence, 31 g ai/ha
  pest or weed control at 31 g/ha: 0%
[1]; Panicum dichotomiflorum, post-emergence, 62 g ai/ha
  pest or weed control at 62 g/ha: 0%
[1]; Panicum dichotomiflorum, post-emergence, 125 g ai/ha
  pest or weed control at 125 g/ha: 0%
[1]; Panicum dichotomiflorum, post-emergence, 250 g ai/ha
  pest or weed control at 250 g/ha: 0%
[1]; Panicum dichotomiflorum, post-emergence, 500 g ai/ha
  pest or weed control at 500 g/ha: 0%
[2]; Sida rhombifolia, post-emergence, 31 g ai/ha, scale 0 to 100
  pest or weed control at 31 g/ha: 30%
[2]; Sida rhombifolia, post-emergence, 62 g ai/ha, scale 0 to 100
  pest or weed control at 62 g/ha: 40%
[2]; Sida rhombifolia, post-emergence, 125 g ai/ha, scale 0 to 100
  pest or weed control at 125 g/ha: 40%
[2]; Sida rhombifolia, post-emergence, 250 g ai/ha, scale 0 to 100
  pest or weed control at 250 g/ha: 60%
[2]; Sida rhombifolia, post-emergence, 500 g ai/ha, scale 0 to 100 (0 no effect, 100 complete control)
  pest or weed control at 500 g/ha: 70%
Soybean (Glycine max); Glycine max, post-emergence, 31 g ai/ha
  plant injury at 31 g/ha: 0%
Soybean (Glycine max); Glycine max, post-emergence, 62 g ai/ha
  plant injury at 62 g/ha: 0%
Soybean (Glycine max); Glycine max, post-emergence, 125 g ai/ha
  plant injury at 125 g/ha: 0%
Soybean (Glycine max); Glycine max, post-emergence, 250 g ai/ha
  plant injury at 250 g/ha: 0%
Soybean (Glycine max); Glycine max, post-emergence, 500 g ai/ha
  plant injury at 500 g/ha: 10%
[3]; Cenchrus echinatus, post-emergence, 31 g ai/ha
  pest or weed control at 31 g/ha: 0%
[3]; Cenchrus echinatus, post-emergence, 62 g ai/ha
  pest or weed control at 62 g/ha: 0%
[3]; Cenchrus echinatus, post-emergence, 125 g ai/ha
  pest or weed control at 125 g/ha: 0%
[3]; Cenchrus echinatus, post-emergence, 250 g ai/ha
  pest or weed control at 250 g/ha: 0%
[3]; Cenchrus echinatus, post-emergence, 500 g ai/ha
  pest or weed control at 500 g/ha: 0%
[4]; Convolvulus arvensis, post-emergence, 31 g ai/ha
  pest or weed control at 31 g/ha: 0%
[4]; Convolvulus arvensis, post-emergence, 62 g ai/ha
  pest or weed control at 62 g/ha: 0%
[4]; Convolvulus arvensis, post-emergence, 125 g ai/ha
  pest or weed control at 125 g/ha: 0%
[4]; Convolvulus arvensis, post-emergence, 250 g ai/ha
  pest or weed control at 250 g/ha: 0%
[4]; Convolvulus arvensis, post-emergence, 500 g ai/ha
  pest or weed control at 500 g/ha: 5%
[5]; Amaranthus palmeri, post-emergence, 31 g ai/ha
  pest or weed control at 31 g/ha: 50%
[5]; Amaranthus palmeri, post-emergence, 62 g ai/ha
  pest or weed control at 62 g/ha: 60%
[5]; Amaranthus palmeri, post-emergence, 125 g ai/ha
  pest or weed control at 125 g/ha: 60%
[5]; Amaranthus palmeri, post-emergence, 250 g ai/ha
  pest or weed control at 250 g/ha: 80%
[5]; Amaranthus palmeri, post-emergence, 500 g ai/ha
  pest or weed control at 500 g/ha: 95%
[6]; Amaranthus tuberculatus, post-emergence, 31 g ai/ha
  pest or weed control at 31 g/ha: 20%
[6]; Amaranthus tuberculatus, post-emergence, 62 g ai/ha
  pest or weed control at 62 g/ha: 30%
[6]; Amaranthus tuberculatus, post-emergence, 125 g ai/ha
  pest or weed control at 125 g/ha: 75%
[6]; Amaranthus tuberculatus, post-emergence, 250 g ai/ha
  pest or weed control at 250 g/ha: 100%
Corn (Zea mays); Zea mays, post-emergence, 31 g ai/ha
  Corn plant response rating (crop injury, 0 = no effect, 100 = complete kill) at 31 g/ha: 0%
Corn (Zea mays); Zea mays, post-emergence, 62 g ai/ha
  Corn plant response rating (crop injury, 0 = no effect, 100 = complete kill) at 62 g/ha: 0%
Corn (Zea mays); Zea mays, post-emergence, 125 g ai/ha
  Corn plant response rating (crop injury, 0 = no effect, 100 = complete kill) at 125 g/ha: 0%
Corn (Zea mays); Zea mays, post-emergence, 250 g ai/ha
  Corn plant response rating (crop injury, 0 = no effect, 100 = complete kill) at 250 g/ha: 0%
Corn (Zea mays); Zea mays, post-emergence, 500 g ai/ha
  Corn plant response rating (crop injury, 0 = no effect, 100 = complete kill) at 500 g/ha: 0%
[7]; Commelina virginica, post-emergence, 31 g ai/ha
  pest or weed control at 31 g/ha: 0%
[7]; Commelina virginica, post-emergence, 62 g ai/ha
  pest or weed control at 62 g/ha: 0%
[7]; Commelina virginica, post-emergence, 125 g ai/ha
  pest or weed control at 125 g/ha: 0%
[7]; Commelina virginica, post-emergence, 250 g ai/ha
  pest or weed control at 250 g/ha: 0%
[7]; Commelina virginica, post-emergence, 500 g ai/ha
  pest or weed control at 500 g/ha: 0%
[8]; [10]
  pest or weed control at 31 g/ha: 0%
  pest or weed control at 62 g/ha: 0%
  pest or weed control at 125 g/ha: 0%
  pest or weed control at 250 g/ha: 10%
  pest or weed control at 500 g/ha: 30%
[9]; Digitaria horizontalis, post-emergence, 31 g ai/ha, read-out: Plant response rating, Crabgrass, Brazil
  pest or weed control at 31 g/ha: 0%
[9]; Digitaria horizontalis, post-emergence, 62 g ai/ha, read-out: Plant response rating, Crabgrass, Brazil
  pest or weed control at 62 g/ha: 0%
[9]; Digitaria horizontalis, post-emergence, 125 g ai/ha, read-out: Plant response rating, Crabgrass, Brazil
  pest or weed control at 125 g/ha: 0%
[9]; Digitaria horizontalis, post-emergence, 250 g ai/ha, read-out: Plant response rating, Crabgrass, Brazil
  pest or weed control at 250 g/ha: 0%
[9]; Digitaria horizontalis, post-emergence, 500 g ai/ha, read-out: Plant response rating, Crabgrass, Brazil
  pest or weed control at 500 g/ha: 0%

## CCn1cc(C(=O)c2cccs2)c(-c2cc(Cl)cc(Cl)c2)n1 [Compound 18]
[1]; 31 g ai/ha
  Plant response rating, Panicum, Fall: 0
[1]; 62 g ai/ha
  Plant response rating, Panicum, Fall: 0
[1]; 125 g ai/ha
  Plant response rating, Panicum, Fall: 0
[1]; 250 g ai/ha
  Plant response rating, Panicum, Fall: 0
[1]; 500 g ai/ha
  Plant response rating, Panicum, Fall: 10
[2]; 31 g ai/ha, scale 0 to 100
  Plant response rating, Arrowleaf Sida: 60
[2]; 62 g ai/ha, scale 0 to 100
  Plant response rating, Arrowleaf Sida: 70
[2]; 125 g ai/ha, scale 0 to 100
  Plant response rating, Arrowleaf Sida: 80
[2]; 250 g ai/ha, scale 0 to 100
  Plant response rating, Arrowleaf Sida: 80
[2]; 500 g ai/ha, scale 0 to 100 (0 no effect, 100 complete control)
  Plant response rating, Arrowleaf Sida: 85
Soybean (Glycine max); 31 g ai/ha
  Plant response rating, Soybean: 0
Soybean (Glycine max); 62 g ai/ha
  Plant response rating, Soybean: 0
Soybean (Glycine max); 125 g ai/ha
  Plant response rating, Soybean: 10
Soybean (Glycine max); 250 g ai/ha
  Plant response rating, Soybean: 20
Soybean (Glycine max); 500 g ai/ha
  Plant response rating, Soybean: 30
[3]; 31 g ai/ha
  Plant response rating, Sandbur: 0
[3]; 62 g ai/ha
  Plant response rating, Sandbur: 0
[3]; 125 g ai/ha
  Plant response rating, Sandbur: 0
[3]; 250 g ai/ha
  Plant response rating, Sandbur: 15
[3]; 500 g ai/ha
  Plant response rating, Sandbur: 20
[4]; 31 g ai/ha
  Plant response rating, Field Bindweed: 0
[4]; 62 g ai/ha
  Plant response rating, Field Bindweed: 15
[4]; 125 g ai/ha
  Plant response rating, Field Bindweed: 25
[4]; 250 g ai/ha
  Plant response rating, Field Bindweed: 25
[4]; 500 g ai/ha
  Plant response rating, Field Bindweed: 35
[5]; 31 g ai/ha
  Plant response rating, Pigweed, Palmer: 90
[5]; 62 g ai/ha
  Plant response rating, Pigweed, Palmer: 90
[5]; 125 g ai/ha
  Plant response rating, Pigweed, Palmer: 90
[5]; 250 g ai/ha
  Plant response rating, Pigweed, Palmer: 98
[5]; 500 g ai/ha
  Plant response rating, Pigweed, Palmer: 98
[6]; 31 g ai/ha
  Plant response rating, Waterhemp: 50
[6]; 62 g ai/ha
  Plant response rating, Waterhemp: 75
[6]; 125 g ai/ha
  Plant response rating, Waterhemp: 85
[6]; 250 g ai/ha
  Plant response rating, Waterhemp: 90
[6]; 500 g ai/ha
  Plant response rating, Waterhemp: 95
Corn (Zea mays); 31 g ai/ha
  Plant response rating, Corn: 0
Corn (Zea mays); 62 g ai/ha
  Plant response rating, Corn: 0
Corn (Zea mays); 125 g ai/ha
  Plant response rating, Corn: 0
Corn (Zea mays); 250 g ai/ha
  Plant response rating, Corn: 0
Corn (Zea mays); 500 g ai/ha
  Plant response rating, Corn: 10
[7]; 31 g ai/ha
  Plant response rating, Dayflower, VA: 0
[7]; 62 g ai/ha
  Plant response rating, Dayflower, VA: 0
[7]; 125 g ai/ha
  Plant response rating, Dayflower, VA: 0
[7]; 250 g ai/ha
  Plant response rating, Dayflower, VA: 0
[7]; 500 g ai/ha
  Plant response rating, Dayflower, VA: 5
[8]; 31 g ai/ha
  Plant response rating, Poinsettia, Wild: 5
[8]; 62 g ai/ha
  Plant response rating, Poinsettia, Wild: 20
[8]; 125 g ai/ha
  Plant response rating, Poinsettia, Wild: 30
[8]; 250 g ai/ha
  Plant response rating, Poinsettia, Wild: 30
[8]; 500 g ai/ha
  Plant response rating, Poinsettia, Wild: 40
[9]; 31 g ai/ha
  Plant response rating, Crabgrass, Brazil: 0
[9]; 62 g ai/ha
  Plant response rating, Crabgrass, Brazil: 5
[9]; 125 g ai/ha
  Plant response rating, Crabgrass, Brazil: 15
[9]; 250 g ai/ha
  Plant response rating, Crabgrass, Brazil: 20
[9]; 500 g ai/ha
  Plant response rating, Crabgrass, Brazil: 20
